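Values below derive from 48-hour exposures of cells grown in 96-well plates, with endpoints linearly interpolated between the two concentrations bracketing the appropriate inhibition level. The concentration for full growth arrest is given as TGI.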
How the values were obtained:
Assay in all cases: NCI-60 cell line screen, 48 h
[1] = tested on: IGROV1 ovarian
[2] = tested on: CAKI-1 renal
[3] = tested on: TK-10 renal
[4] = tested on: DU-145 prostate
[5] = tested on: RXF 393 renal
[6] = tested on: CCRF-CEM leukemia
[7] = tested on: UO-31 renal
[8] = tested on: SN12C renal
[9] = tested on: UACC-62 melanoma
[10] = tested on: PC-3 prostate
[11] = tested on: SK-MEL-2 melanoma
[12] = tested on: LOX IMVI melanoma
[13] = tested on: HT29 colon
[14] = tested on: SK-MEL-28 melanoma
[15] = tested on: NCI-H226 lung
[16] = tested on: U251 CNS
[17] = tested on: MDA-MB-435
[18] = tested on: A549 NSCLC
[19] = tested on: OVCAR-8 ovarian
[20] = tested on: MALME-3M melanoma
[21] = tested on: K-562 leukemia
[22] = tested on: SK-MEL-5 melanoma
[23] = tested on: OVCAR-5 ovarian
[24] = tested on: T-47D breast
[25] = tested on: HL-60(TB) leukemia
[26] = tested on: EKVX NSCLC
[27] = tested on: ACHN renal
[28] = tested on: NCI-H23 lung
[29] = tested on: KM12 colon
[30] = tested on: HCC-2998 colon
[31] = tested on: MOLT-4 leukemia
[32] = tested on: NCI-H460 lung
[33] = tested on: SK-OV-3 ovarian
[34] = tested on: SNB-75 CNS
[35] = tested on: NCI/ADR-RES ovarian
[36] = tested on: HCT-15 colon
[37] = tested on: HOP-62 NSCLC
[38] = tested on: A498 renal
[39] = tested on: HS 578T breast
[40] = tested on: OVCAR-4 ovarian
[41] = tested on: SNB-19 CNS
[42] = tested on: OVCAR-3 ovarian
[43] = tested on: COLO 205 colon
[44] = tested on: BT-549 breast
[45] = tested on: SF-539 CNS
[46] = tested on: MCF7 breast
[47] = tested on: SF-295 CNS
[48] = tested on: UACC-257 melanoma
[49] = tested on: SF-268 CNS
[50] = tested on: NCI-H522 lung
[51] = tested on: SW-620 colon
[52] = tested on: HOP-92 NSCLC
[53] = tested on: M14 melanoma
[54] = tested on: RPMI-8226 leukemia
[55] = tested on: MDA-MB-231 breast
[56] = tested on: SR leukemia
[57] = tested on: 786-0 renal
[58] = tested on: HCT-116 colon

Structure (SMILES): CC(C)(C)OC(=O)NC(Cc1ccccc1)C(=O)OCN1C(=O)C2C3C=CC(C2C1=O)C1C2C(=O)N(COC(=O)C(Cc4ccccc4)NC(=O)OC(C)(C)C)C(=O)C2C31 (stereo not drawn)
- TGI [1]: 97.4 µM
- TGI [2]: > 100 µM
- TGI [3]: > 91.2 µM
- TGI [4]: > 100 µM
- TGI [5]: > 64.2 µM
- TGI [6]: > 68.5 µM
- TGI [7]: > 87.9 µM
- TGI [8]: > 100 µM
- TGI [9]: > 100 µM
- TGI [10]: > 100 µM
- TGI [11]: 98.5 µM
- TGI [12]: > 100 µM
- TGI [13]: > 100 µM
- TGI [14]: > 100 µM
- TGI [15]: > 96.4 µM
- TGI [16]: > 100 µM
- TGI [17]: > 100 µM
- TGI [18]: > 73.8 µM
- TGI [19]: > 100 µM
- TGI [20]: > 100 µM
- TGI [21]: > 100 µM
- TGI [22]: > 74.8 µM
- TGI [23]: > 100 µM
- TGI [24]: > 100 µM
- TGI [25]: > 57.5 µM
- TGI [26]: > 100 µM
- TGI [27]: > 100 µM
- TGI [28]: > 100 µM
- TGI [29]: > 100 µM
- TGI [30]: > 100 µM
- TGI [31]: 82.4 µM
- TGI [32]: > 100 µM
- TGI [33]: > 95.5 µM
- TGI [34]: 58.9 µM
- TGI [35]: > 100 µM
- TGI [36]: > 100 µM
- TGI [37]: > 100 µM
- TGI [38]: > 90.9 µM
- TGI [39]: 54.3 µM
- TGI [40]: > 100 µM
- TGI [41]: > 82.7 µM
- TGI [42]: > 100 µM
- TGI [43]: 28.7 µM
- TGI [44]: 92.6 µM
- TGI [45]: > 100 µM
- TGI [46]: > 100 µM
- TGI [47]: > 100 µM
- TGI [48]: > 100 µM
- TGI [49]: > 88.9 µM
- TGI [50]: 85 µM
- TGI [51]: > 100 µM
- TGI [52]: > 100 µM
- TGI [53]: > 100 µM
- TGI [54]: > 100 µM
- TGI [55]: > 94.2 µM
- TGI [56]: 4.06 µM
- TGI [57]: > 100 µM
- TGI [58]: > 88.5 µM
